According to PubChem BioAssay AID602178 (NMMLSC, 2012):
The source made the active and inactive calls. The rule behind the calls is not given here.

Molecular target: Lethal factor (Bacillus anthracis) (UniProt P15917)
Experiment: Bacillus anthracis LF protease inhibitors, dose response, biochemical, multiplex microsphere, cherry pick 1 compounds (AID 602178)
Settings: multiplex microsphere protease cleavage assay, LF inhibition

Sequence of Lethal factor (Bacillus anthracis) (P15917 whole entry, looked up): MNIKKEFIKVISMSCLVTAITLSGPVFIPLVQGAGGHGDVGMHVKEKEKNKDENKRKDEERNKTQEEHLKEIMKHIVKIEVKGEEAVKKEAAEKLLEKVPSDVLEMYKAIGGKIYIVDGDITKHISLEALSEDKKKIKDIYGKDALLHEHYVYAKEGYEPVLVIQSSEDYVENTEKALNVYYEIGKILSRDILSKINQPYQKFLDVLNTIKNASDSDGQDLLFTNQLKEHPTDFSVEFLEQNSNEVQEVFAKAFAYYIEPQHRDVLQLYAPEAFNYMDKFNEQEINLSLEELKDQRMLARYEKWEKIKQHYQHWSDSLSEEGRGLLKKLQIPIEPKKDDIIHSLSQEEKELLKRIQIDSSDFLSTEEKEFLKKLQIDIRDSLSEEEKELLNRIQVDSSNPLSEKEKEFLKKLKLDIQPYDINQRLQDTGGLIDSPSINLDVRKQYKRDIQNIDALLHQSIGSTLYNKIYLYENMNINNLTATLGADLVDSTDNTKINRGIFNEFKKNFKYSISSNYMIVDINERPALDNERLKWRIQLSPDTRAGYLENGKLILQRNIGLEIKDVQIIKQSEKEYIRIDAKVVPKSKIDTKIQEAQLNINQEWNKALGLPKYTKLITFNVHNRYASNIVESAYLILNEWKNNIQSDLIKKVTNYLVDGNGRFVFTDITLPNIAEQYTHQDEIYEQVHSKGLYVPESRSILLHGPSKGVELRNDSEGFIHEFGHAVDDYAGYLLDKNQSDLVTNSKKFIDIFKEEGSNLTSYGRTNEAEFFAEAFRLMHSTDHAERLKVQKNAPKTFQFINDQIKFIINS

Oc1[nH]c(N=C2N=c3ccccc3=N2)c2ccccc12
EC50: > 20 µM (inactive)
